pIC50: −log10 of the molar value.
Each compound was assayed against T1, human chemokine receptor 2 isoform B (CCR2B) (Homo sapiens, UniProt P41597) (assay: Calcium mobilization assay (FLIPR, MCP-1 stimulated CHOK1-CCR2B-A5 cells)). Details: 20 nM MCP-1, antagonist activity, read-out: IC50 (inhibitor concentration required for 50% inhibition of specific calcium increases).
T1 construct: host or cells: CHO-K1 (CHOK1-CCR2B-A5)
T1 sequence (P41597 1-360 isoform P41597-2): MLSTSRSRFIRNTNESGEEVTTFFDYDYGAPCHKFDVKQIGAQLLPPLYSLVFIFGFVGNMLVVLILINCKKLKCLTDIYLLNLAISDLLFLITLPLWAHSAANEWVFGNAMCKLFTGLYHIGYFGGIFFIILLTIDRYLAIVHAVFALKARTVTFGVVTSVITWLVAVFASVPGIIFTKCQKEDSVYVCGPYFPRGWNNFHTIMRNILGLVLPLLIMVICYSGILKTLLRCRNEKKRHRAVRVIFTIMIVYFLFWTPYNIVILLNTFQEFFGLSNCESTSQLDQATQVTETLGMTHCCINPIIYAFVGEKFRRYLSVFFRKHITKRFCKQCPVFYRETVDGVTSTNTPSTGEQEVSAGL
Type: cell-based
Protocol: Calcium Mobilization Assay
CHOK1-CCR2B-A5 cells (from Euroscreen) stably overexpressing the human chemokine receptor 2 isoform B were cultured in Nutrient Hams F12 medium supplemented with 5% FBS, 100 U/ml penicillin, 100 μg/ml streptomycin, 400 μg/ml G418 and 5 μg/ml puromycin.
For the assay cells were grown overnight in 384-well black clear flat bottom polystyrene plates (Costar) at 37° C. at 5% CO2. After washing with DMEM, 20 mM Hepes, 2.5 mM probenecid, 0.1% BSA (DMEM assay buffer) cells were loaded with 4 μM Fluo-4 in the same DMEM assay buffer for 2 hours at 30° C. Excess dye was removed and cells were washed with DMEM assay buffer. 384-well compound plates were prepared with DMEM assay buffer/0.5% DMSO with or without various concentrations of test compounds. Usually compounds were tested for agonist and antagonist activity.
Test compounds were added to the assay plate and agonist activity was monitored as fluorescence for 80 seconds with a FLIPR (488 nm excitation; 510-570 nm emission; Molecular Devices). After 20-30 min. of incubation at 30° C., 20 nM MCP-1 (R&D; Roche) was added and fluorescence was monitored again for 80 seconds. Increases in intracellular calcium are reported as maximum fluorescence after agonist exposure minus basal fluorescence before exposure. Antagonist activity is indicated as inhibitor concentration required for 50% inhibition of specific calcium increases.
Compound Cc1cc(-c2cccc(C(F)(F)F)c2)c(-c2cncnc2)nc1C(=O)N1CCC(N2CCCC2)CC1 [Example 17, [3-Methyl-6-pyrimidin-5-yl-5-(3-trifluoromethyl-phenyl)-pyridin-2-yl]-(4-pyrrolidin-1-yl-piperidin-1-yl)-methanone] has a pIC50 of 8.06. COC(=O)c1nc(C(=O)N2CCC(N3CCCC3)CC2)c(C)cc1-c1cccc(C(F)(F)F)c1 [Example 45, 5-Methyl-6-(4-pyrrolidin-1-yl-piperidine-1-carbonyl)-3-(3-trifluoromethyl-phenyl)-pyridine-2-carboxylic acid methyl ester] showed a pIC50 of 8.12. For Cc1cc(-c2cc(C(F)(F)F)ccc2F)c[n+]([O-])c1C(=O)N1CCC(N2CCCC2)CC1 [Example 67, [5-(2-Fluoro-5-trifluoromethyl-phenyl)-3-methyl-1-oxy-pyridin-2-yl]-(4-pyrrolidin-1-yl-piperidin-1-yl)-methanone], the pIC50 was 7.23. Work on Cc1cc(-c2cccc(C(F)(F)F)c2)c(C(=O)Nc2cccnc2)nc1C(=O)N1CCC(N2CCCC2)CC1 [Example 56, 5-Methyl-6-(4-pyrrolidin-1-yl-piperidine-1-carbonyl)-3-(3-trifluoromethyl-phenyl)-pyridine-2-carboxylic acid pyridin-3-ylamide] yielded a pIC50 of 7.89. With CNC(=O)c1nc(C(=O)N2CCC(N3CCCC3)CC2)c(C)cc1-c1cccc(C(F)(F)F)c1 [Example 58, 5-Methyl-6-(4-pyrrolidin-1-yl-piperidine-1-carbonyl)-3-(3-trifluoromethyl-phenyl)-pyridine-2-carboxylic acid methylamide] the pIC50 was 6.72. In the case of Cc1cc(-c2cccc(C(F)(F)F)c2)c(-c2ccnn2C)nc1C(=O)N1CCC(N2CCCC2)CC1 [Example 53, [3-Methyl-6-(2-methyl-2H-pyrazol-3-yl)-5-(3-trifluoromethyl-phenyl)-pyridin-2-yl]-(4-pyrrolidin-1-yl-piperidin-1-yl)-methanone], the pIC50 was 7.82. For CC(=O)N(C(C)=O)c1nc(C(=O)N2CCC(N3CCCC3)CC2)c(C)cc1-c1cccc(C(F)(F)F)c1 [Example 10, N-Acetyl-N-[5-methyl-6-(4-pyrrolidin-1-yl-piperidine-1-carbonyl)-3-(3-trifluoromethyl-phenyl)-pyridin-2-yl]-acetamide], the pIC50 was 7.11. COc1ccc(CNc2nc(C(=O)N3CCC(N4CCCC4)CC3)c(C)cc2-c2cccc(C(F)(F)F)c2)cc1 [Example 6, [6-(4-Methoxy-benzylamino)-3-methyl-5-(3-trifluoromethyl-phenyl)-pyridin-2-yl]-(4-pyrrolidin-1-yl-piperidin-1-yl)-methanone] was tested, and the pIC50 was 6.89. Cc1cc(-c2cccc(C(F)(F)F)c2)c[n+]([O-])c1C(=O)N1CCC(N2CCCC2)CC1 [Example 2, [3-Methyl-1-oxy-5-(3-trifluoromethyl-phenyl)-pyridin-2-yl]-(4-pyrrolidin-1-yl-piperidin-1-yl)-methanone] gave a pIC50 of 7.64. In the case of Cc1cc(-c2cccc(C(F)(F)F)c2F)cnc1C(=O)N1CCC(N2CCCC2)CC1 [Example 36, [5-(2-Fluoro-3-trifluoromethyl-phenyl)-3-methyl-pyridin-2-yl]-(4-pyrrolidin-1-yl-piperidin-1-yl)-methanone], the pIC50 was 6.74. Cc1cc(-c2cccc(C(F)(F)F)c2)c(-c2cnn(C)c2)nc1C(=O)N1CCC(N2CCCC2)CC1 [Example 50, [3-Methyl-6-(1-methyl-1H-pyrazol-4-yl)-5-(3-trifluoromethyl-phenyl)-pyridin-2-yl]-(4-pyrrolidin-1-yl-piperidin-1-yl)-methanone] gave a pIC50 of 7.74. For Cc1cc(-c2cc(C(F)(F)F)ccc2Cl)cnc1C(=O)N1CCC(N2CCCC2)CC1 [Example 30, [5-(2-Chloro-5-trifluoromethyl-phenyl)-3-methyl-pyridin-2-yl]-(4-pyrrolidin-1-yl-piperidin-1-yl)-methanone], the pIC50 was 7.27. Cc1cc(-c2cccc(C(F)(F)F)c2)c(-n2cnc(Cl)n2)nc1C(=O)N1CCC(N2CCCC2)CC1 [Example 20, [6-(3-Chloro-[1,2,4]triazol-1-yl)-3-methyl-5-(3-trifluoromethyl-phenyl)-pyridin-2-yl]-(4-pyrrolidin-1-yl-piperidin-1-yl)-methanone] gave a pIC50 of 8.40. Cc1cc(-c2cccc(C(F)(F)F)c2)c(-c2ccc(O)nc2)nc1C(=O)N1CCC(N2CCCC2)CC1 [Example 41, [6′-Hydroxy-5-methyl-3-(3-trifluoromethyl-phenyl)-[2,3′]bipyridinyl-6-yl]-(4-pyrrolidin-1-yl-piperidin-1-yl)-methanone] gave a pIC50 of 7.80. Compound Cc1cc(-c2cccc(C(F)(F)F)c2)c(O)nc1C(=O)N1CCC(N2CCCC2)CC1 [Example 9, [6-Hydroxy-3-methyl-5-(3-trifluoromethyl-phenyl)-pyridin-2-yl]-(4-pyrrolidin-1-yl-piperidin-1-yl)-methanone; 5-Methyl-6-(4-pyrrolidin-1-yl-piperidine-1-carbonyl)-3-(3-trifluoromethyl-phenyl)-1H-pyridin-2-one (tautomers)] has a pIC50 of 8.19. In the case of COc1ccc(C(F)(F)F)cc1-c1cnc(C(=O)N2CCC(N3CCCC3)CC2)c(C)c1 [Example 33, [5-(2-Methoxy-5-trifluoromethyl-phenyl)-3-methyl-pyridin-2-yl]-(4-pyrrolidin-1-yl-piperidin-1-yl)-methanone], the pIC50 was 7.80. Compound O=C(c1nc(Cl)c(-c2cccc(C(F)(F)F)c2)cc1Cl)N1CCC(N2CCCC2)CC1 [Example 21, [3,6-Dichloro-5-(3-trifluoromethyl-phenyl)-pyridin-2-yl]-(4-pyrrolidin-1-yl-piperidin-1-yl)-methanone] has a pIC50 of 8.49. For Cc1cc(-c2cccc(C(F)(F)F)c2)c(=O)n(C)c1C(=O)N1CCC(N2CCCC2)CC1 [Example 63, 1,5-Dimethyl-6-(4-pyrrolidin-1-yl-piperidine-1-carbonyl)-3-(3-trifluoromethyl-phenyl)-1H-pyridin-2-one], the pIC50 was 7.49. Cc1cc(-c2ccc(F)c(C(F)(F)F)c2)cnc1C(=O)N1CCC(N2CCCC2)CC1 [Example 34, [5-(4-Fluoro-3-trifluoromethyl-phenyl)-3-methyl-pyridin-2-yl]-(4-pyrrolidin-1-yl-piperidin-1-yl)-methanone] was tested, and the pIC50 was 7.23. Cc1cc(-c2cccc(C(F)(F)F)c2)c(C(=O)NC2CCN(C(=O)OC(C)(C)C)CC2)nc1C(=O)N1CCC(N2CCCC2)CC1 [Example 57, 4-{[5-Methyl-6-(4-pyrrolidin-1-yl-piperidine-1-carbonyl)-3-(3-trifluoromethyl-phenyl)-pyridine-2-carbonyl]-amino}-piperidine-1-carboxylic acid tert-butyl ester] was tested, and the pIC50 was 6.68. Cc1cc(-c2cccc(C(F)(F)F)c2)c(-c2cnc(N)nc2)nc1C(=O)N1CCC(N2CCCC2)CC1 [Example 39, [6-(2-Amino-pyrimidin-5-yl)-3-methyl-5-(3-trifluoromethyl-phenyl)-pyridin-2-yl]-(4-pyrrolidin-1-yl-piperidin-1-yl)-methanone] gave a pIC50 of 8.24.

— patent US8227613B2, “Heteroaryl carboxamide derivatives” (Hoffmann-La Roche Inc., priority 2008, dated 2012)
